From article PMC3486420, “In Vitro and In Vivo Characterizations of Chiglitazar, a Newly Identified PPAR Pan-Agonist” (PPAR Research, 2012) come the findings set out here.

One data set has as its target T1, PPARα (Homo sapiens, UniProt Q07869).
T1 sequence (Q07869 1-468): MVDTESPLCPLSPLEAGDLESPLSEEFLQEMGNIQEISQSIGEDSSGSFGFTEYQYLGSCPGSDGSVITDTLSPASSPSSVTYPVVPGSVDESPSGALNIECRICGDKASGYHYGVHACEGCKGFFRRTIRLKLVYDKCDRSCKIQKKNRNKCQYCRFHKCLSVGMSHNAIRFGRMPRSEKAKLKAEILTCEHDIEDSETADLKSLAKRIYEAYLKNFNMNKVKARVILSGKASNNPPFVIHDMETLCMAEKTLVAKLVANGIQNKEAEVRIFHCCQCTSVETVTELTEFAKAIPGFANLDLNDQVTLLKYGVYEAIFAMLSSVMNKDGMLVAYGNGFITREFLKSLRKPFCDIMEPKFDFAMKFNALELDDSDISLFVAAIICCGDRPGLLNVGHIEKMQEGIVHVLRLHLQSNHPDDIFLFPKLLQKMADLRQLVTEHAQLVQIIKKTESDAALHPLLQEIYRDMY
T1 sequence (P19793 1-462 partner): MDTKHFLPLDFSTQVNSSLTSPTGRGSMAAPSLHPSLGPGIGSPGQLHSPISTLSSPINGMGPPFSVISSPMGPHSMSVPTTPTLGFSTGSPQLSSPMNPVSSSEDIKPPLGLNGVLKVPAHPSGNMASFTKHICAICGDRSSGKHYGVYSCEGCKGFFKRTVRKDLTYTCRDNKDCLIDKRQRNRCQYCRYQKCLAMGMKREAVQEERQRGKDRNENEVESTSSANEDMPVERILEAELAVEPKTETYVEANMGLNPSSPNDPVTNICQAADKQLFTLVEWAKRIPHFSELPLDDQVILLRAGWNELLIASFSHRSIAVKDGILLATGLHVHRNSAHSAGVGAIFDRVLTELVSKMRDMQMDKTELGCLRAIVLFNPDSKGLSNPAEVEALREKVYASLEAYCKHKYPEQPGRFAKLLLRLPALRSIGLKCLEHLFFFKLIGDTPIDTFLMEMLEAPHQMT
The experiment in a line: PPARα transactivation reporter gene assay in U2OS cells. The format is cell-based.

The subject of a further data set is RAW267.4 cells. The experiment in a line: Gene expression by RT-PCR in RAW267.4 cells. Particulars: 48 h, 10 μM chiglitazar. The format is cell-based, mouse. An excerpt:
cDNAs for human retinoid X receptor (hRXR), PPARα, PPARγ, and PPARδ were obtained by reverse transcriptase polymerase chain reaction (RT-PCR) from human liver or adipose tissues. Amplified cDNAs were cloned into pcDNA3.1 expression vector (Invitrogen, Carlsbad, CA, USA). The integrity and fidelity of all constructs made were verified by DNA sequencing. Luciferase reporter plasmids, ACOX promoter for PPARγ and pHD(X3)-luc for PPARα, were kind gifts of Drs. TM McIntyre (University of Utah, USA) and RA Rachubinski (University of Alberta, Canada), respectively. PPRE-luc for PPARδ was constructed based on the previous report by insertion of the annealed oligonucleotides having four copies of the CYP4A6 PPRE (4 × […]) into the upstream of the luciferase coding sequence in pGL3-promoter vector (Promega, Madison, WI, USA). pCMVβGal was purchased from Clontech (Palo Alto, CA, USA). The mouse 3T3-L1 preadipocyte cell line, skeletal muscle C2C12 cell line, and macrophage RAW267.4 cell line and the human osteosarcoma U2OS cell line were obtained from the American Type Culture Collection (ATCC, Rockville, MD, USA). The human hepatoma SMMC-7721 cell line was obtained from the Cell Culture Center of Chinese Academy of Medical Sciences (Beijing, China). Cell lines were cultured in medium of DMEM (3T3-L1, C2C12, and SMMC-7721), RPMI 1640 (RAW267.4), or McCoy's 5A (U2OS), containing 10% fetal bovine serum (FBS), 50 μg/mL streptomycin, and 50 units/mL penicillin at 37°C in a humidified incubator with 5% CO2.
Total RNA was extracted from cells or tissues with an RNeasy minikit (Qiagen, Valencia, CA, USA). The first-strand cDNA was synthesized using the oligo(dT) primers, followed by using SuperScript II reverse transcriptase (Invitrogen) according to the manufacturer's instructions. The PCR amplifications were performed in 10 μL of reaction mixture volume containing 0.8 μL of cDNA, 10 mM Tris-HCl (pH 8.3), 50 mM KCl, 1.5 mM MgCl2, 0.1% Triton X-100, 0.2 mM deoxynucleotide triphosphates, 0.4 μM primers, and 0.25 U of Taq polymerase (TaKaRa Biotechnology Co., Ltd, China). Taq DNA polymerase was added to each tube after a treatment of 2 min at 94°C. This was followed by 22–30 cycles of denaturation (23 s at 94°C), annealing (20 s at 55°C), extension (30 s at 72°C), and a final extension step of 2 min. PCR products were analyzed by electrophoresis on a 1.5% agarose gel stained with ethidium bromide.
Figure 1 In vitro regulation of gene expression by chiglitazar. (a) Endogenous expression of individual PPAR subtypes in cell lines. […]. The expression change of referred genes induced by different compounds was normalized against internal control (36B4 or GAPDH) and then compared with vehicle control treatment. The data shown are averaged from 3 independent experiments.

A further data set has as its system KKAy mice. Put plainly: Oral treatment of diabetic KKAy mice (glucose, body weight). The format is in vivo, mouse. An excerpt: Male db/db mice (BKS.Cg-m +/+ LEPR^db) in 6-7 weeks were purchased from The Jackson Laboratory (Bar Harbor, ME, USA). Male KKAy and C57BL/6J mice in 8–10 weeks were obtained from the Institute of Animal Science, Chinese Academy of Medical Sciences and Peking Union Medical College (Beijing, China). Animals were randomly sorted into different treatment groups (8–10 per group). […] Plasma glucose levels were examined at various time points by Accu-Chek Advantage II Glucose Strips (Roche Diagnostics, Basel, Switzerland) and measured by Accu-Chek Advantage (Roche Diagnostics). Animals were sacrificed 24 h after the last dosing and abdominal fat pad, liver, and skeletal muscle from KKAy mice and abdominal fat pad from db/db mice were taken for gene expression analysis.
Figure 2 In vivo effects on blood glucose control and insulin sensitization of chiglitazar. […] Plasma glucose (a and b) and insulin (c) levels were measured at the indicated time points. […] Data are expressed as mean ± SE.
Figure 4 Influence in body and abdominal fat pad weights of chiglitazar. […] Changes in body weight were evaluated at the indicated days (b), and the fat pads were weighed from the scarified animals at day 15 (c). ^# P < 0.05 compared with day 0, and *P < 0.05 compared with Ctrl. n = 8 per group for KKAy, and n = 10 per group for db/db. Data are expressed as mean ± SE.

Turning to `O=C(c1ccc(F)cc1)c1ccccc1NC(Cc1ccc(OCCn2c3ccccc3c3ccccc32)cc1)C(=O)O` (stereo not drawn) [Chi, 2-[(2-(4-fluorobenzoyl)phenyl)amino]-3-[4-(2-carbazolylethoxy)-phenyl]-propionic acid], on PPARα (24 h treatment, luciferase reporter, hRXR cotransfected, ia: inactive at 10 μM), the concentration for a half-maximal effect (EC50) is 1200 ± 300 nM. The “PPARα % Max” value at PPARα (max response compared with WY at 50 μM) came out at 147%. In addition, in the data set on RAW267.4 cells (50 μM WY14643, 5 μM 2-Bro, compared with rosiglitazone 10 μM), the “Expression of PPARα and/or PPARδ downstream gene SRA” value is “more significantly upregulated”. The “Expression of PPARγ downstream gene CD36” value in the data set with RAW267.4 cells (10 μM rosiglitazone, vs vehicle) is “upregulated”. Besides, in the data set on KKAy mice (5 and 20 mg kg^−1 oral daily, 12 days, in comparison with rosiglitazone 5 mg kg^−1), the Body weight result is “did not increase”. In the data set on KKAy mice (oral daily, 5 to 20 mg kg^−1, 12 days), the “BG (blood glucose) levels” value was “significantly lowered”.
